Here are results for 1 molecule from US10656089B2, “Systems, devices, and methods for time-resolved fluorescent spectroscopy” (Black Light Surgical, Inc., priority 2016, dated 2020).

This experiment has as its system NADH levels in ex vivo brain sample (cortex). In words: continuous monitoring of NADH in an ex vivo brain sample by time-resolved fluorescence spectroscopy. The note with it: rabbit cortex ex vivo. How it is done: Changes in NADH level were assessed to determine changes in the metabolic status of the brain sample in response to oxygen depletion, stimulation with neuro-protective drugs, and other stimuli. During ATP production in aerobic respiration conditions, NADH is oxidized to NAD+. In low oxygen conditions, for example, in areas of hypoxia or ischemia after a stroke, NADH accumulates in cells and persistent oxygen depletion can lead to cell death and breakdown of NADH. The different NADH states and levels may allow for the assessment of the viability and vulnerability of cells in an ischemic environment. Fluctuations in NADH levels were evaluated by measuring the fluorescence emission from NADH […]. […]
The system comprised a Q-switched ND:YaG laser (Teem Photonics PNVM02510) 1804 running at 1 KHz which emitted laser pulse at a wavelength of about 350 nm and a pulse width of about 400 ps full width half maximum (FWHM). […] The probe 1800 comprised a central 600 um fiber 1805 to deliver the excitation light surrounded by twelve 200 um fibers to collect the responsive fluorescence signal. […] One bundle of collection fibers 1806a was coupled to a spectrometer (Ocean Optics, Maya) which monitored the fluorescence spectrum every 100 ms. […]

`C=C(C)[C@H]1Cc2c(ccc3c2O[C@@H]2COc4cc(OC)c(OC)cc4[C@@H]2C3=O)O1` [rotenone]: the “NADH levels (free and bound NADH fluorescence)” value (50 nM rotenone added to Kreb-Ringer bath after about 30 minutes baseline) is given as “increased NADH levels”. Further, where the note is “additional rotenone doses of 1 uM and 50 uM added at 10 minute intervals”, the NADH fluorescence detected result is “further increases in fluorescence detected”.
